Patent US8148388B2, “2,4 (4,6) pyrimidine derivatives” (Janssen Pharmaceutica, N.V., priority 2004, dated 2012)

Key:
Format in all cases: biochemical
EGFR (h) = EGFR (h) (Homo sapiens, UniProt P00533); assay: EGFR human kinase assay (glass-fiber filter); conditions: test concentration of 10^−6M; for inhibition at 1 µM: read-out: C4 score (inhibition of EGFR human)
Method: (§1) In the glass-fiber filter technology the activity of the kinase of interest is measured using an appropriate substrate that is incubated with the aforementioned kinase protein in the presence of (^33P) radiolabeled ATP. (^33P) Phosphorylation of the substrate is subsequently measured as radioactivity bound on a glass fiber-filter.
(§2) All kinases are pre-diluted to a 10× working concentration prior to addition into the assay. The composition of the dilution buffer for each kinase is detailed below.
(§3) In a final reaction volume of 25 μl, EGFR (h) (5-10 mU) is incubated with 8 mM MOPS pH 7.0, 0.2 mM EDTA, 10 mM MnCl2, 0.1 mg/ml poly(Glu, Tyr) 4:1, 10 mM MgAcetate and [γ-^33P-ATP] (specific activity approx. 500 cpm/pmol, concentration as required). The reaction is initiated by the addition of the MgATP mix. After incubation for 40 minutes at room temperature, the reaction is stopped by the addition of 5 μl of a 3% phosphoric acid solution. 10 μl of the reaction is then spotted onto a Filtermat A and washed three times for 5 minutes in 75 mM phosphoric acid and once in methanol prior to drying and scintillation counting.

Abl (h) = Abl (h) (Homo sapiens, UniProt P00519); assay: Abl human kinase assay (glass-fiber filter); conditions: test concentration of 10^−6M; for inhibition at 1 µM: read-out: C1 score (inhibition of Abl human)
Method: as §1, §2
as §3, with “(specific” for “In a final reaction volume of 25 μl, EGFR (h) (5-10 mU) is incubated with 8 mM MOPS pH 7.0, 0.2 mM EDTA, 10 mM MnCl2, 0.1 mg/ml poly(Glu, Tyr) 4:1, 10 mM MgAcetate and [γ-^33P-ATP] (specific”, “P30 filtermat” for “Filtermat A”

GSK3B (h) = GSK3B (h) (Homo sapiens, UniProt P49841); assay: GSK3β human kinase assay (glass-fiber filter); conditions: test concentration of 10^−6M; for inhibition at 1 µM: read-out: C8 score (inhibition of GSK3β human)
Method: (§4) The in vitro inhibition of a panel of kinases was assessed using either the glass-fiber filter technology as described by Davies, S. P. et al., Biochem J. (2000), 351; p. 95-105.
as §1, §2
as §3, with “GSK3B” for “EGFR”, “20 μM […](p)EDEEE (phospho GS2 peptide),” for “10 mM MnCl2, 0.1 mg/ml poly(Glu, Tyr) 4:1,”, “P30 filtermat” for “Filtermat A”, “50” for “75”

Lyn (h) = Lyn (h) (Homo sapiens, UniProt P07948); assay: Lyn human kinase assay (glass-fiber filter); conditions: test concentration of 10^−6M; for inhibition at 1 µM: read-out: C10 score (inhibition of Lyn human)
Method: as §1, §2
In a final reaction volume of […] (h) (5-10 mU) is incubated with 50 mM Tris pH 7.5, 0.1 mM EGTA, 0.1 mM Na3VO4, 0.1% O-mercaptoethanol, 0.1 mg/ml poly(Glu, Tyr) 4:1, 10 mM MgAcetate and [γ-^33P-ATP] (specific activity approx. 500 cpm/pmol, concentration as required). The reaction is initiated by the addition of the MgATP mix. After incubation for 40 minutes at room temperature, the reaction is stopped by the addition of 5 μl of a 3% phosphoric acid solution. 10 μl of the reaction is then spotted onto a Filtennat A and washed three times for 5 minutes in 75 mM phosphoric acid and once in methanol prior to drying and scintillation counting.

Fms (h) = Fms (h) (Homo sapiens, UniProt P07333); assay: Fms human kinase assay (glass-fiber filter); conditions: test concentration of 10^−6M; read-out: C7 score (inhibition of Fms human)
Method: as §4, §1, §2
as §3, with “Fms” for “EGFR”, “250 μM […],” for “10 mM MnCl2, 0.1 mg/ml poly(Glu, Tyr) 4:1,”, “P30 filtermat” for “Filtermat A”

Yes (h) = Yes (h) (Homo sapiens, UniProt P07947); assay: Yes human kinase assay (glass-fiber filter); conditions: test concentration of 10^−6M; for inhibition at 1 µM: read-out: C11 score (inhibition of Yes human)
Method: as §1, §2
as §3, with “Yes” for “EGFR”, “EDTA,” for “EDTA, 10 mM MnCl2,”, “[…],” for “cpm/pmol,”

Flt3 (h) = Flt3 (h) (Homo sapiens, UniProt P36888); assay: Flt3 human kinase assay (glass-fiber filter); conditions: test concentration of 10^−6M; for inhibition at 1 µM: read-out: C6 score (inhibition of Flt3 human)
Method: as §4, §1, §2
as §3, with “Flt3” for “EGFR”, “50 μM […],” for “10 mM MnCl2, 0.1 mg/ml poly(Glu, Tyr) 4:1,”, “P30 filtermat” for “Filtermat A”

cSRC (h) = cSRC (h) (Homo sapiens, UniProt P12931); assay: cSRC human kinase assay (glass-fiber filter); conditions: test concentration of 10^−6M; for inhibition at 1 µM: read-out: C3 score (inhibition of cSRC human)
Method: (§5) The in vitro inhibition of a panel of kinases was assessed using either the glass-fiber filter technology as described by Davies, S. P. et al., Biochem J. […] In the glass-fiber filter technology the activity of the kinase of interest is measured using an appropriate substrate that is incubated with the aforementioned kinase protein in the presence of (^33P) radiolabeled ATP. (^33P) Phosphorylation of the substrate is subsequently measured as radioactivity bound on a glass fiber-filter. All kinases are pre-diluted to a 10× working concentration prior to addition into the assay. The composition of the dilution buffer for each kinase is detailed below. […] The reaction is initiated by the addition of the MgATP mix. […] 10 μl of the reaction is then spotted onto a P30 filtermat and washed three times for 5 minutes in 75 mM phosphoric acid and once in methanol prior to drying and scintillation counting.

Lck (h) = Lck (h) (Homo sapiens, UniProt P06239); assay: Lck human kinase assay (glass-fiber filter); conditions: test concentration of 10^−6M; for inhibition at 1 µM: read-out: C9 score (inhibition of Lck human)
Method: as §5, with “below. [table]” for “below.”

Fes (h) = Fes (h) (Homo sapiens, UniProt P07332); assay: Fes human kinase assay (glass-fiber filter); conditions: test concentration of 10^−6M; for inhibition at 1 µM: read-out: C4 score (inhibition of Fes human)
Method: as §1, §2
as §3, with “Fes” for “EGFR”, “EDTA,” for “EDTA, 10 mM MnCl2,”

Sequence of GSK3B (h) (P49841 whole entry): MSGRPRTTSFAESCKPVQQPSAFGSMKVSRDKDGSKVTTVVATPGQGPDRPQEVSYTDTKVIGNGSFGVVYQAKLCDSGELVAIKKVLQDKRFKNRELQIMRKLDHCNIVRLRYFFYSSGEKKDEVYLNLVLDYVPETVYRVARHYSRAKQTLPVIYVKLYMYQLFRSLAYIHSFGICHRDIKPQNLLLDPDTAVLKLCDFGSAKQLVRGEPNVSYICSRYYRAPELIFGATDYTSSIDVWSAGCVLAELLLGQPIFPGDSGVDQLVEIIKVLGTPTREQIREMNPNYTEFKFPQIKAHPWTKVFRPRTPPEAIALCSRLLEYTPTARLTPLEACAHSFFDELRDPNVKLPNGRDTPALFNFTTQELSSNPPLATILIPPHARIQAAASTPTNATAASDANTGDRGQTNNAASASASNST
Sequence of Lck (h) (P06239 whole entry): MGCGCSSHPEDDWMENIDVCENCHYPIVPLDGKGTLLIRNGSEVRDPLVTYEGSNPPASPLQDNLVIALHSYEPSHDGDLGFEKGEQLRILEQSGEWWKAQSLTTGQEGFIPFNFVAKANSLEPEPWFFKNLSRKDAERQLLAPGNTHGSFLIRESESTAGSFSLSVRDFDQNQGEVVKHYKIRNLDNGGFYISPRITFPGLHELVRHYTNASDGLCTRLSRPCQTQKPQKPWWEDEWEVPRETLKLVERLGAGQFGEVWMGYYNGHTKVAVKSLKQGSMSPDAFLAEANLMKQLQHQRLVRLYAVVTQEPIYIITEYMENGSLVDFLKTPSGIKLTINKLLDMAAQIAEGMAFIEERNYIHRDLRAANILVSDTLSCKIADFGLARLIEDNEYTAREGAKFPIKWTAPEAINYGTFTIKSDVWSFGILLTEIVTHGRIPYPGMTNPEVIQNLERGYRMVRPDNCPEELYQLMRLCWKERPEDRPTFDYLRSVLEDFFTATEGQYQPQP
Sequence of Yes (h) (P07947 whole entry): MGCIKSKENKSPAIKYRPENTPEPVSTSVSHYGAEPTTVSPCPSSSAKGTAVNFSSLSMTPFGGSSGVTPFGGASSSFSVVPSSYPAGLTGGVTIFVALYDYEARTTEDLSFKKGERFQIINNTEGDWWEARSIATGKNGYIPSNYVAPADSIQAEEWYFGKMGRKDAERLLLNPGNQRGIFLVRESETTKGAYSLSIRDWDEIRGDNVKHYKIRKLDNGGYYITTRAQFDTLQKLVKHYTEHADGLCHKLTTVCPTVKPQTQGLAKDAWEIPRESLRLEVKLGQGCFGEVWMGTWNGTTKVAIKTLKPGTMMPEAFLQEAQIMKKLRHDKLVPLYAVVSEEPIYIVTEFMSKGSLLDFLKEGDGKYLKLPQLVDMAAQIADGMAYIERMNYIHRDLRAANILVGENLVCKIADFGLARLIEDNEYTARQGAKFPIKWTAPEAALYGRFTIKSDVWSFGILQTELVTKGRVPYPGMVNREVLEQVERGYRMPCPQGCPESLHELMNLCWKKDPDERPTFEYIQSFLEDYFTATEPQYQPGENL
Sequence of Flt3 (h) (P36888 27-993): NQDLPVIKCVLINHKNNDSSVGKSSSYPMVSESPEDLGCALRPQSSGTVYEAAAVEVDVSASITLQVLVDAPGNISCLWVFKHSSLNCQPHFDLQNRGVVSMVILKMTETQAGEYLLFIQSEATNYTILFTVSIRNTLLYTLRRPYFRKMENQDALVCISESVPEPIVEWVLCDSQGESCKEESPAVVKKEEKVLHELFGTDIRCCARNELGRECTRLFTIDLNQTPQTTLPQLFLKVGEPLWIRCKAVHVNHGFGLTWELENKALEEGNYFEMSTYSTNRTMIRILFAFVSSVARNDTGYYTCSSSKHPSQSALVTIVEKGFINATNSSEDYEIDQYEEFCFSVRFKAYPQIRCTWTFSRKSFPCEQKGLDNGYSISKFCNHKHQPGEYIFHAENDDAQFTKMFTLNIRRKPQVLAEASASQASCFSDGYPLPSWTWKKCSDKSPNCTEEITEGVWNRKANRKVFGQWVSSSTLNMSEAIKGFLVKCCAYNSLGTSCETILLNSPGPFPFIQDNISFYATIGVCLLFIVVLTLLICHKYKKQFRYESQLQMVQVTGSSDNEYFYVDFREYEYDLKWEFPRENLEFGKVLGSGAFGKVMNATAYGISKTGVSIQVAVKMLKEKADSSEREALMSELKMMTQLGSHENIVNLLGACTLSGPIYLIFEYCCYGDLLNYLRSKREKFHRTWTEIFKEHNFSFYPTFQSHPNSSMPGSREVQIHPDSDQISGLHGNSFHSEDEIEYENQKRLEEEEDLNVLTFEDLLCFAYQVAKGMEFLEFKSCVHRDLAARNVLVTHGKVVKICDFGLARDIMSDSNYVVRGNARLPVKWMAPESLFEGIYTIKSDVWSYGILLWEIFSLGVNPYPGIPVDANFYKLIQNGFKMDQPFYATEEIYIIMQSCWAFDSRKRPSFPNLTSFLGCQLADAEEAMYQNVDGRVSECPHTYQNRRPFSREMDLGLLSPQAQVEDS
Sequence of Fms (h) (P07333 20-972): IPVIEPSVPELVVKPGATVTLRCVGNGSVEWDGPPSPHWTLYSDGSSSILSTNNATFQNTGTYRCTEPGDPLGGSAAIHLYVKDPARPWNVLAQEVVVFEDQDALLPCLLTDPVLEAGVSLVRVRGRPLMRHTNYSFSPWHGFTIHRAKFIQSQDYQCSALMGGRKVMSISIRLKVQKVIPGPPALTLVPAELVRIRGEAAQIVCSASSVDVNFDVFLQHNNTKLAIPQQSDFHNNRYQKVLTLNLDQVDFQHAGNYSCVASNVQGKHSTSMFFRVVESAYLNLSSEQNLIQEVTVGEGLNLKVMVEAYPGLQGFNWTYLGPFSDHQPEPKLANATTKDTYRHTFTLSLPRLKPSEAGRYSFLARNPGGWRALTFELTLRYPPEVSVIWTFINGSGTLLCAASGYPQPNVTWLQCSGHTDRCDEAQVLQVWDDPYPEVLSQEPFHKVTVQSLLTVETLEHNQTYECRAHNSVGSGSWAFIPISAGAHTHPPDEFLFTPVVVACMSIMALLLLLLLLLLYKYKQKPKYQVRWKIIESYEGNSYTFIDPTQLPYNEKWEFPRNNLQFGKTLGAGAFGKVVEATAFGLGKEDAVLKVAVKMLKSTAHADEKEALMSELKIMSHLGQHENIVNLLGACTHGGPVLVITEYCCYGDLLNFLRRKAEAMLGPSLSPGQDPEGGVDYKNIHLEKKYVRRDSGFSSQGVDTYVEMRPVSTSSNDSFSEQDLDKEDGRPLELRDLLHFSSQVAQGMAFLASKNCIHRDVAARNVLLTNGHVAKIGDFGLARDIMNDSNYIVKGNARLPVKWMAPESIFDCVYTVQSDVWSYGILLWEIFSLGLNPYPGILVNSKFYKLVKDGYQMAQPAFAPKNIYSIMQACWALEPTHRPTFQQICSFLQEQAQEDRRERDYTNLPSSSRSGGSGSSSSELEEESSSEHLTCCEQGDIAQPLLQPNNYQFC
Sequence of Fes (h) (P07332 whole entry): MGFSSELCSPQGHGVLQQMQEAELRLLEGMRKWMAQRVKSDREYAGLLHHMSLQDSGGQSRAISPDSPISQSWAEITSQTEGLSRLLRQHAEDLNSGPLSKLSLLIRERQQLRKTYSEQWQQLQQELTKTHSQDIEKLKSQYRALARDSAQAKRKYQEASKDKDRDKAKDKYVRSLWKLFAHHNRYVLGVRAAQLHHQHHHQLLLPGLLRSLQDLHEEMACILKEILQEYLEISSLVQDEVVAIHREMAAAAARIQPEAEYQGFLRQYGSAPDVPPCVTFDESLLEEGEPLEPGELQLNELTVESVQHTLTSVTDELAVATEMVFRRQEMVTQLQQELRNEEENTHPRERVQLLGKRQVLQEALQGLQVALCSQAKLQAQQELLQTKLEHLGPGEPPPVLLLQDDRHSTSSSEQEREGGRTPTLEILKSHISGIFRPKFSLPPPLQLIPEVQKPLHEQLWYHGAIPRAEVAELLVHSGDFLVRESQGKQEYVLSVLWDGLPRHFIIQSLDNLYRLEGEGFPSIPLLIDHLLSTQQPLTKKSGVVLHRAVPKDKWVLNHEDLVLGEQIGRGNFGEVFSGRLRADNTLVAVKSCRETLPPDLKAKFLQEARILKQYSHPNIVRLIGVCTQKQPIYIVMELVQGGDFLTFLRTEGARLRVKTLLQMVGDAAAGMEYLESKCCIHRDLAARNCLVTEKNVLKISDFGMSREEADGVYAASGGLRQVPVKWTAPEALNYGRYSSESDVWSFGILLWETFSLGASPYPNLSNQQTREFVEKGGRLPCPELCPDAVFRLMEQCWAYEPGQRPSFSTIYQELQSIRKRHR
Sequence of cSRC (h) (P12931 whole entry): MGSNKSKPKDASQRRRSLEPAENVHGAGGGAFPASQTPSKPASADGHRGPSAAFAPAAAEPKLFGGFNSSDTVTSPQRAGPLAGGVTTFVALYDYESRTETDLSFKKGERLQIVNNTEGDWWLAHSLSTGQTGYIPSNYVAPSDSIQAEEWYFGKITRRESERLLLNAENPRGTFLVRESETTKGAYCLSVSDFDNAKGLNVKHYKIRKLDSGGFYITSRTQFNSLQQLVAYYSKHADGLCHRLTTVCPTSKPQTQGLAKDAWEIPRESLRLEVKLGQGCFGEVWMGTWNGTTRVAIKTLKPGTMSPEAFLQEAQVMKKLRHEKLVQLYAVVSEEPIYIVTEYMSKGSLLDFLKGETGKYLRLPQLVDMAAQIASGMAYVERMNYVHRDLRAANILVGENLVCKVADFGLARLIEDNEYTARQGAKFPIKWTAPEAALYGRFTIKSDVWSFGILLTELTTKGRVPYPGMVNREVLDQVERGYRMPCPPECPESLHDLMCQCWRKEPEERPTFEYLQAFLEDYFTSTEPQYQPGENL

Structure (SMILES)	inhibition at 1 µM (EGFR (h)) [%]	inhibition at 1 µM (Abl (h)) [%]	inhibition at 1 µM (GSK3B (h)) [%]	inhibition at 1 µM (Lyn (h)) [%]	inhibition at 1 µM (Fms (h)) [%]	inhibition at 1 µM (Yes (h)) [%]	inhibition at 1 µM (Flt3 (h)) [%]	inhibition at 1 µM (cSRC (h)) [%]	inhibition at 1 µM (Lck (h)) [%]	inhibition at 1 µM (Fes (h)) [%]	C4 score (inhibition of EGFR human) (EGFR (h))	C8 score (inhibition of GSK3β human) (GSK3B (h))	C10 score (inhibition of Lyn human) (Lyn (h))	C4 score (inhibition of Fes human) (Fes (h))	C11 score (inhibition of Yes human) (Yes (h))	C6 score (inhibition of Flt3 human) (Flt3 (h))	C3 score (inhibition of cSRC human) (cSRC (h))	C9 score (inhibition of Lck human) (Lck (h))	C1 score (inhibition of Abl human) (Abl (h))
COc1ccc2cc1OCCCNC(=O)[C@@H]1CCCN1Cc1cc(F)c(Cl)cc1Nc1nc(ncc1C#N)N2 [Compound 6, 21,17-metheno-15,11-nitrilo-1H,16H-pyrrolo[2,1-s][13,1,5,7,17,20]benzoxapentaazacyclotricosine-12-carbonitrile, 8-chloro-7-fluoro-2,3,5,10,23,24,25,26,27,27a-decahydro-20-methoxy-27-oxo-, (27aS)-]	–	–	–	–	–	–	–	–	–	–	1 (Score 1=10-30% inhibition)	2 (Score 2=30-60% inhibition)	1 (Score 1=10-30% inhibition)	1 (Score 1=10-30% inhibition)	2 (Score 2=30-60% inhibition)	2 (Score 2=30-60% inhibition)	1 (Score 1=10-30% inhibition)	2 (Score 2=30-60% inhibition)	–
N#Cc1cnc2nc1Nc1cccc(c1)OCC(=O)NCCOc1cccc(c1)N2 [Compound 27, 14,20-dioxa-2,4,8,17,27-pentaazatetracyclo[19.3.1.1~3,7~.1~9,13~]heptacosa-1(25),3,5,7(27),9,11,13(26),21,23-nonaene-6-carbonitrile, 16-oxo-]	10 to 30	10 to 30	30 to 60	10 to 30	30 to 60	10 to 30	60 to 80	–	30 to 60	10 to 30	–	–	–	–	–	–	–	–	–
COc1ccc2cc1OCCNC(=O)[C@@H]1CCCN1Cc1cc(F)c(Cl)cc1Nc1nc(ncc1C#N)N2 [Compound 31, 21,17-metheno-15,11-nitrilo-16H-pyrrolo[2,1-r][13,1,5,7,16,19]benzoxapentaazacyclodocosine-12-carbonitrile, 8-chloro-7-fluoro-1,2,3,5,10,23,24,25,26,26a-decahydro-20-methoxy-26-oxo-, (26aS)-]	–	–	–	–	–	–	–	–	–	–	2 (Score 2=30-60% inhibition)	1 (Score 1=10-30% inhibition)	4 (Score 4=>80% inhibition)	–	4 (Score 4=>80% inhibition)	2 (Score 2=30-60% inhibition)	2 (Score 2=30-60% inhibition)	3 (Score 3=60-80% inhibition)	2 (Score 2=30-60% inhibition)

Now from value to compound, other results behind:

inhibition at 1 µM (EGFR (h)) [%]	inhibition at 1 µM (Abl (h)) [%]	inhibition at 1 µM (GSK3B (h)) [%]	inhibition at 1 µM (Lyn (h)) [%]	inhibition at 1 µM (Fms (h)) [%]	inhibition at 1 µM (Yes (h)) [%]	inhibition at 1 µM (Flt3 (h)) [%]	inhibition at 1 µM (cSRC (h)) [%]	inhibition at 1 µM (Lck (h)) [%]	inhibition at 1 µM (Fes (h)) [%]	Structure (SMILES)	C4 score (inhibition of EGFR human) (EGFR (h))	C8 score (inhibition of GSK3β human) (GSK3B (h))	C10 score (inhibition of Lyn human) (Lyn (h))	C4 score (inhibition of Fes human) (Fes (h))	C11 score (inhibition of Yes human) (Yes (h))	C6 score (inhibition of Flt3 human) (Flt3 (h))	C3 score (inhibition of cSRC human) (cSRC (h))	C9 score (inhibition of Lck human) (Lck (h))	C1 score (inhibition of Abl human) (Abl (h))
10 to 30	10 to 30	10 to 30	10 to 30	10 to 30	30 to 60	30 to 60	10 to 30	30 to 60	–	O=C1NCCCCOc2cccc(c2)Nc2ccnc(n2)Nc2cccc1c2 [Compound 19, 14-oxa-2,4,8,19,27-pentaazatetracyclo[19.3.1.1~3,7~.1~9,13~]heptacosa-1(25),3,5,7(27),9,11,13(26),21,23-nonaen-20-one]	–	–	–	–	–	–	–	–	–
–	10 to 30	60 to 80	10 to 30	30 to 60	30 to 60	> 80	30 to 60	30 to 60	10 to 30	N#Cc1cnc2nc1Nc1cccc(c1)OCCCCOc1cccc(c1)N2 [Compound 2, 14,19-dioxa-2,4,8,26-tetraazatetracyclo[18.3.1.1˜3,7˜.1˜9,13˜]hexacosa-1(24),3,5,7(26),9,11,13(25),20,22-nonaene-6-carbonitrile]	–	–	–	–	–	–	–	–	–
